Source: patent US5594144A, “Tropolone derivatives and pharmaceutical composition thereof for preventing and treating ischemic diseases” (The Upjohn Company, priority 1990, dated 1997)
Read-outs that look alike come from different tables or passages of the source.

Columns and labels:
[1] = tested on: KCN-induced respiratory arrest; assay: in vivo Anti-anoxia effect (KCN lethal dose); design: species or system mouse (ICR strain, male); details: Mus musculus, po; * methansulfonate; KCN 3.0 mg/kg
Description: 7. in vivo Anti-anoxia effect
A group (5 mice) of ICR strain male mice (about 8-week-old) were used. One or two hours after the test compounds were orally administered, a lethal dose (3.0 mg/kg) of KCN was administered into tail vein. A period of time to respiratory arrest and a survival rate were measured. The test compound which provided at least 50% of active example was determined as "active".

[2] = tested on: pig right coronary artery; assay: in vitro Ca-antagonism (high K+ induced 45Ca-influx); assay type: cell-based; details: Sus scrofa, K+ 75 mM
Description: 2. in vitro Ca-antagonism
A strip of pig right coronary artery was depolarized with high K^+ (75 mM) for 30 minutes to induce voltage dependent ^45 Ca-influx. The extracellular ^45 Ca was chelated by adding EGTA and removed by washing, then the strip was lysed at 100° C. ^45 Ca in this lysate was measured as intracellular ^45 Ca by a scintillation counter. The concentration of the test compound was 10^-7, 10^-6, 10^-5 M, and applied until depolarization by K^+ was completed. Ratio of inhibition at various concentrations of the test compounds for increasing the intracellular ^45 Ca by K^+ was determined. The compound with high inhibition ratio has strong Ca-antagonism.

[3] = tested on: Brain microsomal fractions; assay: in vitro Anti-lipid peroxidation effect (TBAR production, Fe3+-ADP/NADPH); assay type: biochemical, rat (SD strain, male)
Description: 1. in vitro Anti-lipid peroxidation effect
Brain microsomal fractions were prepared from male rats of SD strain, and a portion (0.2 mg protein) was incubated at 37° C. for 15 minutes with a mixture of Fe^3+ (0.1 mM)--ADP (0.5 mM) in the presence or absence of the test compound, in final volume of 1 ml of 10 mM HEPES, 150 mM KCl, 0.2 mM NADPH, pH 7.4. After incubation, 1.5 ml of TCA-TBA-HCl reagent (16.7% trichloroacetic acid, 0.4% thiobarbituric acid, 0.278N hydrochloric acid) was added and the reaction mixture was heated in a boiling water for 15 minutes. After cooling in ice-bath, the reaction mixture was centrifuged, and the absorbance of the supernatant at 535 nm was measured. The amount of thiobarbituric acid reactive substance (TBAR) was obtained by calculation using an extinction coefficient of 1.56×10^5 […]. […] The results are shown in Table 1A for compounds of the formulas IA, IB, and IC, respectively. The compounds with highest inhibition rate have the greatest anti-lipid peroxidation effect.

[4] = tested on: Mouse Cerebral Ischemia/Reperfusion; assay: in vivo Behavior test (Mouse Cerebral Ischemia/Reperfusion Test); design: species or system mouse (ICR strain, male)
Description: Bilateral common carotid arteries of both sides of ICR strain male mice (about 8 weeks old) were occluded for 5 minutes while lightly anesthetized, then blood was reperfuged. The test compounds were intraperitoneally administered 10 minutes before occlusion and within 3 hours after reperfusion. Since a day after reperfusion, behavior disorder was evaluated by spontaneous motor activity of exploratory behavior, traction test and passive avoidance test. That is, spontaneous motor activity was evaluated as follows. Motor activity was measured by tilting cage method for 30 minutes since immediately after a mouse was placed in a measurement cage. If the motor activity was at least more than (average of spontaneous motion of the group received solvent) +2×SD, the compound was evaluated as "active." In traction test, both fore limbs of the mouse were placed on the horizontally stretched wire. If the mouse put its hind limb within 2 seconds, the compound was estimated as "active.". In passive avoidance test, a step-through type apparatus was used, and as acquisition trial of blood reperfusion, electrical shock (about 0.5 mA, 3 seconds) was given to the mice as soon as the whole body of mice entered the black room and on the next day test trial was carried out. The mouse which stayed in a light room for at least 300 seconds was estimated as an active example. In all tests, the test compound which provided at least 50% of active animals was determined as "active." The results are shown in Table 5.

porcine coronary artery = assay: in vitro Coronary vasodilation effect (PGF2α-contracted strip); assay type: cell-based; details: Sus scrofa; 25% of papaverine-induced relaxation; read-out: Coronary Vasodilation (ED25 μM)
Description: 3. in vitro Coronary vasodilation effect
The right portion of a porcine coronary artery was isolated, and cut into 3 mm wide strip which was suspended in a organ bath filled with 20 ml of Krebs--Henseleit solution (37° C.). During the experiment the bath solution was aerated with 95% O2 +5% Co2. The change in tension was measured using an isometric transducer. After load tension was stabilized, the preparation was contracted with PGF2α (10^-6 -[…]). After the contract level had stabilized the test compound was cumulatively applied from 10^-8 to 10^-5 M. Papaverine (10^-4 M) was used to obtain maximal relaxation at the end of the experiment. The result was expressed as the percentage of papverine-induced relaxation, and the concentration of the test compound which gave 25% relaxation of papaverine-induced relaxation was defined as ED25. The compound with low ED25 value has great coronary vasodilation effect.

ventricular arrhythmia = assay: in vivo Ischemic heart/reperfusion test; details: Rattus norvegicus, iv
Description: 4. in vivo Ischemic heart/reperfusion test
Experiment was carried out using rats anesthetized with pentobarbital under artificial respiration. After the forth rib was excised, heart was exposed by thoracotomy, and the thread was placed under the left coronary artery at it origin. Then, the heart was returned and a thread was passed in a tube. Compounds were applied through tail vein. After 10 minutes, the thread in the tube was pulled to occlude coronary artery. Five minutes after occlusion, the thread was loosened again for reperfusion. Then, ventricular arrhythmia was recorded on electrocardiogram (lead II), by sticking needle electrodes into a right fore-limb and a left hind-limb. Duration time of ventricular tachycardia and occurrence of ventricular fibrillation caused after reperfusion were compared between a group receiving the test compounds and a similarly treated vehicle group. If either of two parameters of the group that received the test compound became less than half of that of the group that received the vehicle, the test compound was estimated as "active".

cerebral blood flow = assay: Normal cerebral flow stream test; assay type: in vivo; details: Rattus norvegicus, iv; urethane anesthetized; laser Doppler; read-out: active dose (increase in cerebral blood flow)
Description: 6. Normal cerebral flow stream test
Experiment was carried out using rats anesthetized with urethane. After a cannulas for blood pressure monitoring and that for drug administration were inserted into femoral artery and vein, respectively. Temporal bone was cut away on a brain stereotaxis apparatus and a probe for measurement of cerebral blood flow was placed on dura mater. The cerebral blood flow was measured using a laser Dopplar blood flow meter. Firstly, a solvent of the test compound was administered intravenously and then three doses of the compound were administered in order of dose every fifteen-minute intervals. When an average of increase in cerebral blood flow due to the test compound minus 2×SE was larger than that of change in cerebral blood flow due to the solvent, the dose was estimated as "active". The compound (1B) was active in the dose of not less than 3 mg/kg i.v.

[5] = ip, route cell empty (method: intraperitoneally)
[6] = read-out: Minimal Effective Dose (mg/kg, i.v.)

| SMILES | inhibition at 10 µM [2] | Anti-Lipid Peroxidation (% inhibition) 10 μM [3] | Anti-Lipid Peroxidation (% inhibition) 50 μM [3] | minimal effective dose ([4]; ip) | further results |
| --- | --- | --- | --- | --- | --- |
| CC(C)c1ccc(CN2CCN(C(c3ccc(F)cc3)c3ccc(F)cc3)CC2)c(=O)c(NCCN(C)C)c1 [Compound 1C, 7-[4-(4,4'-difluorobenzhydryl)piperazino-1-methyl]-2-(N-2-dimethylaminoethylamino)-4-isopropyl-2,4,6-cycloheptatrien-1-one] | 81% | 59.4% | 95.3% |  | minimal effective dose [1]: 100 mg/kg |
| CC(C)c1ccc(CN2CCN(C(c3ccccc3)c3ccc(Cl)cc3)CC2)c(=O)c(O)c1 (centres unmarked) [Compound 1A, 7-[4-(4-chlorobenzhydryl)piperazino-1-methyl]-2-hydroxy4-isopropyl-2,4,6-cycloheptatrien-1-one] | 44% | 6.7% | < 21.3% |  | minimal effective dose [4, 5]: > 10 mg/kg; EC25 (porcine coronary artery): > 10000 nM |
| COc1cc(C(C)C)ccc(C2Sc3ccccc3N2CCN(C)C)c1=O (centres unmarked) [Compound 11B, 2-(2'-oxo-3'-methoxy-5'-isopropyl-3',5',7'-cycloheptatrienyl)-3-[2-(N,N-dimethylamino)ethyl]benzothiazoline] |  | 89.3% |  | 1 mg/kg | minimal effective dose (ventricular arrhythmia; [6]): < 5 mg/kg |
| COc1cc(C(C)C)ccc(C2Sc3ccccc3N2Cc2ccncc2)c1=O (centres unmarked) [Compound 6B, 2-(2'-oxo-3'-methoxy-5'-isopropyl-3',5',7'-cycloheptatrienyl)-3-(4-picolyl)benzothiazoline] |  | 93.1% | 96.6% |  | minimal effective dose ([4]; iv): < 1 mg/kg |
| COc1cc(C(C)C)ccc(C2Sc3ccccc3N2CCc2ccccc2)c1=O (centres unmarked) [Compound 1B, 2-(2'-oxo-3'-methoxy-5'-isopropyl-3',5',7'-cycloheptatrienyl)-3-phenethylbenzothiazoline] |  | 91.8% | 93.1% | 0.1 mg/kg | minimal effective dose (cerebral blood flow): ≥ 3 mg/kg |
| COc1cc(C(C)C)ccc(C2Sc3ccccc3N2CCCN(C)C)c1=O (centres unmarked) [Compound 12B, 2-(2'-oxo-3'-methoxy-5'-isopropyl-3',5',7'-cycloheptatrienyl)-3-[3-(N,N-dimethylamino)propyl]benzothiazoline] |  | 89.4% |  | 1 mg/kg |  |
| COc1cc(C(C)C)ccc(C2Sc3ccccc3N2CCCN(C)CCc2ccccc2)c1=O (centres unmarked) [Compound 10B, 2-(2'-oxo-3'-methoxy-5'-isopropyl-3',5',7'-cycloheptatrienyl)-3-[3-(N-methyl-N-phenethylamino)propyl]benzothiazoline] |  | 93.0% | 94.5% |  | minimal effective dose (ventricular arrhythmia; [6]): < 5 mg/kg |
| COc1cc(C(C)C)ccc(CN2CCN(C(c3ccccc3)c3ccc(Cl)cc3)CC2)c1=O (centres unmarked) [Compound 2A, 7-[4-(4-chlorobenzhydryl)piperazino-1-methyl]-4-isopropyl-2-methoxy-2,4,6-cycloheptatrien-1-one] | 61% | 28.8% | 84.7% |  | minimal effective dose ([4]; ip, # methanesulfonate, route cell empty (method: intraperitoneally)): 3 mg/kg; EC25 (porcine coronary artery): 1800 nM; minimal effective dose (ventricular arrhythmia; value marked # (methanesulfonate per footnote of Table 5)): 0.3 mg/kg |
| COc1cc(C(C)C)ccc(C2Sc3ccccc3N2C)c1=O (centres unmarked) [Compound 2B, 2-(2'-oxo-3'-methoxy-5'-isopropyl-3',5',7'-cycloheptatrienyl)-3-methylbenzothiazoline] |  | 95.5% |  | 1 mg/kg |  |
| COc1cc(C(C)C)ccc(CN2CCN(C(c3ccc(F)cc3)c3ccc(F)cc3)CC2)c1=O [Compound 7A, 7-[4-(4,4'-difluorobenzhydryl)piperazino-1-methyl]-4-isopropyl-2-methoxy-2,4,6-cycloheptatrien-1-one] | 100% | 27.2% | 59.2% |  | minimal effective dose [4, 5]: < 10 mg/kg; EC25 (porcine coronary artery): 1900 nM; minimal effective dose (ventricular arrhythmia; [6]): < 5 mg/kg |
| CC(C)c1ccc(CN2CCN(C(c3ccc(F)cc3)c3ccc(F)cc3)CC2)c(=O)c(NCCNc2ccccn2)c1 [Compound 9C, 7-[4-(4,4'-difluorobenzhydryl)piperazino-1-methyl]-4-isopropyl-2-[N-2-(2-pyridylamino)ethylamino]-2,4,6-cycloheptatrien-1-one] | 38% | 88.1% | 91.6% |  |  |
